ChEMBL document CHEMBL2417394, “Exquisite selectivity for human toll-like receptor 8 in substituted furo[2,3-c]quinolines” (J Med Chem, 2013)
Activity calls are given as the source filed them. The calls are words filed in the database; no cut-off is given here.

Experiments:
[1] = molecular target: Toll-like receptor 5 (Homo sapiens) (UniProt O60602); assay: Modulation of human TLR5 expressed in HEK293 cells co-transfected with MD2 and sAP assessed as induction of NF-kappaB activity by reporter gene assay; type: cell-based
Chain of Toll-like receptor 5 (Homo sapiens) (O60602 whole entry): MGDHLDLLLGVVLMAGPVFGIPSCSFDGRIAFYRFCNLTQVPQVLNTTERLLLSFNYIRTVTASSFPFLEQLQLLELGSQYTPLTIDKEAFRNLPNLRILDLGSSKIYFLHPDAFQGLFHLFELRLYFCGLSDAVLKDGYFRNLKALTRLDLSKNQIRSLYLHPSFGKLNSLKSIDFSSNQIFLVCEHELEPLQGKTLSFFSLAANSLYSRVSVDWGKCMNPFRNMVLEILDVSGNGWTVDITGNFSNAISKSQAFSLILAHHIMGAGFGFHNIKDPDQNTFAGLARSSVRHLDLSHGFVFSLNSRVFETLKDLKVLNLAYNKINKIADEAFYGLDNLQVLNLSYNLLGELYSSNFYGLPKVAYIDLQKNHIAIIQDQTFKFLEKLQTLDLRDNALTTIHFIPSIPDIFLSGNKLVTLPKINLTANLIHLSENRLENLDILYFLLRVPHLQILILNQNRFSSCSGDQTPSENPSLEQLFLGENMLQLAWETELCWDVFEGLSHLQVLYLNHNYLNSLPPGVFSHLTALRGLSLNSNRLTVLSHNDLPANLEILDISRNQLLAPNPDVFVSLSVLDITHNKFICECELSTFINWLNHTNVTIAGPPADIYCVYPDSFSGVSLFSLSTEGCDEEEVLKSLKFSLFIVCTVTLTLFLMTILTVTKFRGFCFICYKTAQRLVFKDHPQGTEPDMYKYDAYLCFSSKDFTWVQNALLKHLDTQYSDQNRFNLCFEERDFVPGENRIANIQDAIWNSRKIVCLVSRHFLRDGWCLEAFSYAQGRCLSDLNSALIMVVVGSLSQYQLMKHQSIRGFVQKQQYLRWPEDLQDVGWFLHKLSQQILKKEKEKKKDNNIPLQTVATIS

[2] = molecular target: T1, Toll-like receptor 9 (Homo sapiens) (UniProt Q9NR96); assay: Modulation of human TLR9 expressed in HEK293 cells co-transfected with MD2 and sAP assessed as induction of NF-kappaB activity by reporter gene assay; type: cell-based
T1 sequence (whole entry): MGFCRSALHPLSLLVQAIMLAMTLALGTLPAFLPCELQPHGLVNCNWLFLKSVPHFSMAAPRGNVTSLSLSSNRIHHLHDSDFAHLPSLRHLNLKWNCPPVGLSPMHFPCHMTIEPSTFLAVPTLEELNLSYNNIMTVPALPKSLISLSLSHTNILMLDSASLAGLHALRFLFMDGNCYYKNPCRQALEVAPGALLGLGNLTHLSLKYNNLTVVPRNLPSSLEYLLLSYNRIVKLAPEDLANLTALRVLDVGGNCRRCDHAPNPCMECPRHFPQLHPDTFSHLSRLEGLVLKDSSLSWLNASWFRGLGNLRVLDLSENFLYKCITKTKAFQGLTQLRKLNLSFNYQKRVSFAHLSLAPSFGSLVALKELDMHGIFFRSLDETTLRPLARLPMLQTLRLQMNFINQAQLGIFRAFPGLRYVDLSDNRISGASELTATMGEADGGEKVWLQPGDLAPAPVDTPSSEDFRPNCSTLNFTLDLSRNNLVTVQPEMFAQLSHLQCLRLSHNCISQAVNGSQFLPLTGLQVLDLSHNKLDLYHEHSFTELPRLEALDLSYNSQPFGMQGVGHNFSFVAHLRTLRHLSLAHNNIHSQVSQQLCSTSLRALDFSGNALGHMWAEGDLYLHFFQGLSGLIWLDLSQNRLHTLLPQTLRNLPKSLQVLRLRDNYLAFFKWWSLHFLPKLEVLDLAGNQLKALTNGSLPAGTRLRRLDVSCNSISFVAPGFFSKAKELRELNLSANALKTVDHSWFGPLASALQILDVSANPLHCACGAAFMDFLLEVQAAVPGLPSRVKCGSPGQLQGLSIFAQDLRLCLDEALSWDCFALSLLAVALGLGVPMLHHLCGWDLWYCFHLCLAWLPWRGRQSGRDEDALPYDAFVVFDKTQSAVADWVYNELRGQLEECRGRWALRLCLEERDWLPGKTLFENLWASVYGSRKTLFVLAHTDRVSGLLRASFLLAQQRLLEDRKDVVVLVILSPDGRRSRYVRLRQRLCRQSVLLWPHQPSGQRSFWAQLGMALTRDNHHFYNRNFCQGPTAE

[3] = molecular target: Toll-like receptor 4 (Homo sapiens) (UniProt O00206); assay: Modulation of human TLR4 expressed in HEK293 cells co-transfected with MD2 and sAP assessed as induction of NF-kappaB activity by reporter gene assay; type: cell-based
Chain of Toll-like receptor 4 (Homo sapiens) (O00206 whole entry): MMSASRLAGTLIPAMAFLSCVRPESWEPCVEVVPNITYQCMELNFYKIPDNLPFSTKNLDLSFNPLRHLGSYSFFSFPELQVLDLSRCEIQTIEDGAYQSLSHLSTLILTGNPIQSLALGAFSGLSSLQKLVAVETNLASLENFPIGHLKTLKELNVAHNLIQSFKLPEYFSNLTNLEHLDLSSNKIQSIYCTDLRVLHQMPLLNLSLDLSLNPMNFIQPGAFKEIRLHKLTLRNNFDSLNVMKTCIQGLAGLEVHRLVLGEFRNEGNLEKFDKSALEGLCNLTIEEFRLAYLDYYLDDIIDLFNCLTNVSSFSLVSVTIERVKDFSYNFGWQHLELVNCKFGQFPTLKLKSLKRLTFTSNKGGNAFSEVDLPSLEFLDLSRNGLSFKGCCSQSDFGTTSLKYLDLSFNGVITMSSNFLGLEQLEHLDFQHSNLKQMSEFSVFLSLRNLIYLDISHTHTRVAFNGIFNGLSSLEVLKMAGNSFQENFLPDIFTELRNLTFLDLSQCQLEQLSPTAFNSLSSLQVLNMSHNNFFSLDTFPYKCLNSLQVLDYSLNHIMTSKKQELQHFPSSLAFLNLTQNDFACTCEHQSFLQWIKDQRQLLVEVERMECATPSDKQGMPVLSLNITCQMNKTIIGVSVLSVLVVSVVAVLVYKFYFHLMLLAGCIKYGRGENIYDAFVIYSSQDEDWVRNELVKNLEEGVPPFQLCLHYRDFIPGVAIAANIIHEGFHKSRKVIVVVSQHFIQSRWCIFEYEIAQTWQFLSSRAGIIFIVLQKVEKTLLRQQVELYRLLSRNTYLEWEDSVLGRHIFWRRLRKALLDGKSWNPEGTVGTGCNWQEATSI

[4] = molecular target: T2, Toll-like receptor 8 (Homo sapiens) (UniProt Q9NR97); assay: Modulation of human TLR8 expressed in HEK293 cells co-transfected with MD2 and sAP assessed as induction of NF-kappaB activity by reporter gene assay; type: cell-based
T2 sequence (whole entry): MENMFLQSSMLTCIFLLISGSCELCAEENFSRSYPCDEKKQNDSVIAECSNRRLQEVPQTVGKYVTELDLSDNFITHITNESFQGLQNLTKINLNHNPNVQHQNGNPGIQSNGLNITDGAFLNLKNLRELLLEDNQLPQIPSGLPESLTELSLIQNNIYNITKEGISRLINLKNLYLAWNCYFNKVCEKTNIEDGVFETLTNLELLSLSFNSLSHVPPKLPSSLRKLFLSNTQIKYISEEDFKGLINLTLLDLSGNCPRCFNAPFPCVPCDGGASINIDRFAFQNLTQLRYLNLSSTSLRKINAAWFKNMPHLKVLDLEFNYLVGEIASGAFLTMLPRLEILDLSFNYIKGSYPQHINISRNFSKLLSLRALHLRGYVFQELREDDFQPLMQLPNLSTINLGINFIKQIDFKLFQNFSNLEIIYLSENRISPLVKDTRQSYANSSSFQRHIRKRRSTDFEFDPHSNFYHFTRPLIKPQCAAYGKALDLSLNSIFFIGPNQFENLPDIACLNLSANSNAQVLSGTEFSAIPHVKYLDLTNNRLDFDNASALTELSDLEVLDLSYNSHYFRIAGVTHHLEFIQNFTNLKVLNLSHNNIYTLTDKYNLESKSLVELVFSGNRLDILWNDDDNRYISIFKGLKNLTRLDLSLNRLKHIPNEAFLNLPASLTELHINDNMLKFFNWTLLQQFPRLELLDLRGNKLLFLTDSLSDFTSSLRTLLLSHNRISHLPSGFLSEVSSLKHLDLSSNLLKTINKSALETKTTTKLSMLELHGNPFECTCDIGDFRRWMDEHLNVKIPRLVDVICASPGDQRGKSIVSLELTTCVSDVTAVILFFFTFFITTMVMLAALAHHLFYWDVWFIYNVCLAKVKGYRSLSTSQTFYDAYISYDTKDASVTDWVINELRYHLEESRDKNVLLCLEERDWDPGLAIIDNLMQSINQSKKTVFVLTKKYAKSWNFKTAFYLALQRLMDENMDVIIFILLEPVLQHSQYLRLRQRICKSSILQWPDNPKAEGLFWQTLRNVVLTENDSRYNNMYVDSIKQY

[5] = molecular target: Toll-like receptor 3 (Homo sapiens) (UniProt O15455); assay: Modulation of human TLR3 expressed in HEK293 cells co-transfected with MD2 and sAP assessed as induction of NF-kappaB activity by reporter gene assay; type: cell-based
Chain of Toll-like receptor 3 (Homo sapiens) (O15455 whole entry): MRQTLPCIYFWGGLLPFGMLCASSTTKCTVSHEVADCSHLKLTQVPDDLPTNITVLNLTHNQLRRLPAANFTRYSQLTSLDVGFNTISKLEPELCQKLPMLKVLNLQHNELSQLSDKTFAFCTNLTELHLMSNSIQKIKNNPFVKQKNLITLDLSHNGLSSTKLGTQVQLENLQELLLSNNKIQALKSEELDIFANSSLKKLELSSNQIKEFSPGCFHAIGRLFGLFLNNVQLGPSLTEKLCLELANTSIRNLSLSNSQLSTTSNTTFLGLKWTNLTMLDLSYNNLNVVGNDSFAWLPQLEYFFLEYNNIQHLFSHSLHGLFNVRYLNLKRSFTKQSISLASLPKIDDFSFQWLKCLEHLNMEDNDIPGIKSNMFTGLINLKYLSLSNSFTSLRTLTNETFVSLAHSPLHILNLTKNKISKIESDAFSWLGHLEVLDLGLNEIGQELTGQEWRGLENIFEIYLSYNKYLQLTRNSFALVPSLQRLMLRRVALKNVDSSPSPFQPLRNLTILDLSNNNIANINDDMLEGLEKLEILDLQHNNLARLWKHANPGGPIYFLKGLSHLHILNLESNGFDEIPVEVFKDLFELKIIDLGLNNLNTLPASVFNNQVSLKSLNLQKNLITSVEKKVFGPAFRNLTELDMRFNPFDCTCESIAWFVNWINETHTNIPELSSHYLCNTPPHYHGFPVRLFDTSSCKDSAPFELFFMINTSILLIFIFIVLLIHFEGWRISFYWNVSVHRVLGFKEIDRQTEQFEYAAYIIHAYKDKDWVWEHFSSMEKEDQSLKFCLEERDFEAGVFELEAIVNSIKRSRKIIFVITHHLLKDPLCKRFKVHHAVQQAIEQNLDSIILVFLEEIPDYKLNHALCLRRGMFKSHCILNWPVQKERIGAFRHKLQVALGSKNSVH

[6] = molecular target: Toll-like receptor 2 (Homo sapiens) (UniProt O60603); assay: Modulation of human TLR2 expressed in HEK293 cells co-transfected with MD2 and sAP assessed as induction of NF-kappaB activity by reporter gene assay; type: cell-based
Chain of Toll-like receptor 2 (Homo sapiens) (O60603 whole entry, the tested form may be a part): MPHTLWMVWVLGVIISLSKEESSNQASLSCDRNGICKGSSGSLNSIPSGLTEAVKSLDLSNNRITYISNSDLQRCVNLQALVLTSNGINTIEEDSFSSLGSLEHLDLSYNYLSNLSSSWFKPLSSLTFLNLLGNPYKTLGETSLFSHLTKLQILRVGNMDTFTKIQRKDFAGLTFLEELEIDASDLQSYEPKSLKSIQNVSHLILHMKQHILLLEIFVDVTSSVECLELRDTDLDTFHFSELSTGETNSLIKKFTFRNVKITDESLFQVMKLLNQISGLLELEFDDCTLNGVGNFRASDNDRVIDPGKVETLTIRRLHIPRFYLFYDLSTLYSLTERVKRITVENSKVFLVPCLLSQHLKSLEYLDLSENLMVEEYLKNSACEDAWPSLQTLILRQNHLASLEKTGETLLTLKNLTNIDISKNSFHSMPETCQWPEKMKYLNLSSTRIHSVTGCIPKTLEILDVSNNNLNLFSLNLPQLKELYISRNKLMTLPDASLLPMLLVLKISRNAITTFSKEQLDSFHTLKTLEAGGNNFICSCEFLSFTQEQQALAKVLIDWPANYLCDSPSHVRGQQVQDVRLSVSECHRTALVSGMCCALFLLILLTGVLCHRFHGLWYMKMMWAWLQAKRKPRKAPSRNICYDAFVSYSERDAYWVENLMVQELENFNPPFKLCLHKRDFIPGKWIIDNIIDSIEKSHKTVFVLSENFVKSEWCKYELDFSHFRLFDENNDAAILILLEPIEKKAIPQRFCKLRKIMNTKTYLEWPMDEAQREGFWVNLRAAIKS

[7] = molecular target: Nucleotide-binding oligomerization domain-containing protein 2 (Homo sapiens) (UniProt Q9HC29); assay: Modulation of NOD2 (unknown origin)
Chain of Nucleotide-binding oligomerization domain-containing protein 2 (Homo sapiens) (Q9HC29 whole entry, the tested form may be a part): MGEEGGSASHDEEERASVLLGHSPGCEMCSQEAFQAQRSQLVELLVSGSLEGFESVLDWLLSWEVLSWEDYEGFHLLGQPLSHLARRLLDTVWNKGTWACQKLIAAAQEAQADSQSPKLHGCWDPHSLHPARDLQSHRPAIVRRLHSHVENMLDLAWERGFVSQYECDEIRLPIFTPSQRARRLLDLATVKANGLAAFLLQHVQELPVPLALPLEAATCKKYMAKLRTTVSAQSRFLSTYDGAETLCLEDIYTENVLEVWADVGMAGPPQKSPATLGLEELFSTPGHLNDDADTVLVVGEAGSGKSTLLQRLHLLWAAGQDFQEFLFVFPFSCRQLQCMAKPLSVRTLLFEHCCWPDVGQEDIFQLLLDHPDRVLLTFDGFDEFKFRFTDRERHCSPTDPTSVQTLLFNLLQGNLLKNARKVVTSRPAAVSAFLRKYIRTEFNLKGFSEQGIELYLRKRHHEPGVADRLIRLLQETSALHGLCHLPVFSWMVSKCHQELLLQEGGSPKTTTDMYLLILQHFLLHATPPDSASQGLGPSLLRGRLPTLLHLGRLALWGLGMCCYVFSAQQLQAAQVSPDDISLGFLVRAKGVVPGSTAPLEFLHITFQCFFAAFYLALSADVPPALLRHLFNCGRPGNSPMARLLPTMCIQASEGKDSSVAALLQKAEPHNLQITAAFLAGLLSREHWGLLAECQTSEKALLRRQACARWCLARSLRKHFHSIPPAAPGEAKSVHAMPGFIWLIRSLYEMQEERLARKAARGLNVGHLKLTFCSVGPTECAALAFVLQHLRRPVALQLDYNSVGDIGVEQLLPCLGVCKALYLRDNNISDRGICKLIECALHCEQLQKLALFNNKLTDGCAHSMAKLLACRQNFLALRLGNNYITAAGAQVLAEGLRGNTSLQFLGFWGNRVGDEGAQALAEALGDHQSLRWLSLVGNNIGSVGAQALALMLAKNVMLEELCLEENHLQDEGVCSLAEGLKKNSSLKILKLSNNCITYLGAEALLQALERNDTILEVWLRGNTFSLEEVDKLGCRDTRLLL

Compound	Activity [1]	Activity [2]	Activity [3]	Activity [4]	Activity [5]	Activity [6]	Activity [7]
NCCc1cc2c(o1)c(N)nc1ccccc12	Active	Active	Active	Active	Active	Active	Active
CCCCc1cc2c(nc(N)c3ccccc32)o1	inactive	inactive	inactive	inactive	inactive	inactive	
